Reference: patent publication US10112911B2, “Substituted cyanoguanidines as oral anti-virals” (Abbvie Inc, priority 2012, dated 2018)
Counter-ions that a name gives are not always drawn. Like-named read-outs stand apart in the source and are kept apart here.

Test system: RSV (Group A, Long Strain)
Assay: Cytopathetic effect (CPE) protection antiviral assay, MTT readout
Format: cell-based
Conditions: human respiratory syncytial virus, HEp-2, 96 h, read-out: RSV EC50
Experimental: HEp-2 cells and RSV (Group A, Long Strain) were obtained from the American Type Culture Collection (Manassas, Va.).
A cytopathetic effect (CPE) protection assay was performed to determine the ability of a compound to protect the cells from viral infection and thus the CPE induced by viral infection. 96-Well plates were first seeded with […] per well in Dulbecco's modified Eagle's medium (DMEM) containing 10% fetal bovine serum (FBS). One day after the cells were seeded, they were preincubated with serial dilutions of compounds prepared in 100 μL assay medium (DMEM mixed with F12 medium at a 1:1 ratio, supplemented with 2% FBS and 1 mM sodium pyruvate) for 1 hour at 37° C. 100 μL of assay medium containing 0.2 multiplicity of infection (MOI) of RSV was then added to each well of cells. In addition to wells containing infected cells incubated with compounds, each plate also contained replicates of two kinds of controls: (1) Virus control contained cells infected with 0.2 MOI of RSV in assay medium, (2) Uninfected cell control contained cells incubated with assay medium only. After 4 days of incubation at 37° C., the viability of cells was assessed using MTT (Thiazolyl blue tetrazolium bromide, Sigma). A stock solution of MTT, at a concentration of 4 mg/mL in phosphate-buffered saline, was added to all wells at 25 μL per well. Plates were further incubated for 4 hours, and each well was then treated with 50 μL of a solution containing 20% sodium dodecyl sulfate (SDS) and 0.02 N HCl. After an overnight incubation, the plates were measured on a BioTek® microtiter plate reader at wavelengths of 570 nm and 650 nm. The MTT detection is based on the fact that viable (uninfected) cells can reduce the tetrazolium salts into colored formazan products, which can then be quantitated by spectrometry. Based on the spectrometric absorbance of each sample, the percent of protection from CPE, which is an indicator of protection from viral infection, can be calculated for each compound and the 50% effective concentrations (EC50) can be calculated using a nonlinear regression curve fitting equation provided by the GraphPad Prism® 4 software.
Compounds were tested to determine both their antiviral and toxicity to determine their therapeutic window. Determination of the EC50 and TD50 of these active compounds were repeated one additional time to confirm the window.

[1] = HEp-2 cells, 0.2 MOI RSV, 4 days incubation, protection from CPE (Table 1)

Structure (SMILES)	EC50 [1]	EC50
CC(C)C1CN(c2cnc3ccccc3n2)CCN1/C(=N\C#N)Nc1cccc(Cl)c1 (centres unmarked) [Example 1.28, N-(3-chlorophenyl)-N′-cyano-2-isopropyl-4-(quinoxalin-2-yl)piperazine-1-carboximidamide]	3.1 µM	
Cc1ccccc1N/C(=N/C#N)N1CCN(c2cnc3cccc(C(F)(F)F)c3n2)CC1C(C)C (centres unmarked) [Example 1.59, N′-cyano-2-isopropyl-N-(2-methylphenyl)-4-[8-(trifluoromethyl)quinoxalin-2-yl]piperazine-1-carboximidamide]	> 3.2 µM	
Cc1ccccc1N(C)C(=NC#N)N1CCN(c2cnc3ccccc3n2)CC1C(C)C (centres unmarked) [Example 1.75, N′-cyano-2-isopropyl-N-methyl-N-(2-methylphenyl)-4-(quinoxalin-2-yl)piperazine-1-carboximidamide]	3.4 µM	
CC(C)C1CN(c2cnc3ccccc3n2)CCN1/C(=N\C#N)Nc1ccc(F)cc1Cl (centres unmarked) [Example 1.30, N-(2-chloro-4-fluorophenyl)-N′-cyano-2-isopropyl-4-(quinoxalin-2-yl)piperazine-1-carboximidamide]	> 10 µM	
Cc1ncccc1N/C(=N/C#N)N1CCN(c2cnc3ccccc3n2)CC1C(C)C (centres unmarked) [Example 1.73, N′-cyano-2-isopropyl-N-(2-methylpyridin-3-yl)-4-(quinoxalin-2-yl)piperazine-1-carboximidamide]	> 10 µM	
Cc1ccccc1NC(=NC#N)N1CCN(c2cnc3cc(F)ccc3n2)C[C@@H]1C(C)C [Example 1.67, (2S)—N′-cyano-4-(6-fluoroquinoxalin-2-yl)-2-isopropyl-N-(2-methylphenyl)piperazine-1-carboximidamide]	0.36 µM	
CC(C)CC1CN(c2cnc3ccccc3n2)CCN1/C(=N\C#N)Nc1ccccc1F (centres unmarked) [Example 1.39, N′-cyano-N-(2-fluorophenyl)-2-isobutyl-4-(quinoxalin-2-yl)piperazine-1-carboximidamide]	> 10 µM	
CC(C)c1ccccc1N/C(=N/C#N)N1CCN(c2cnc3ccccc3n2)CC1C(C)C (centres unmarked) [Example 1.26, N′-cyano-2-isopropyl-N-(2-isopropylphenyl)-4-(quinoxalin-2-yl)piperazine-1-carboximidamide]	> 10 µM	
Cc1ccccc1NC(=NC#N)N1CCN(c2ccc3cccnc3n2)CC1C(C)C (centres unmarked) [Example 1.66, N′-cyano-2-isopropyl-N-(2-methylphenyl)-4-(1,8-naphthyridin-2-yl)piperazine-1-carboximidamide]	1.5 µM	
Cc1ccccc1N/C(=N/C#N)N1CCN(c2cnc3ccccc3n2)C[C@H]1C(C)C [Example 1.12, (2R)—N′-cyano-2-isopropyl-N-(2-methylphenyl)-4-(quinoxalin-2-yl)piperazine-1-carboximidamide trifluoroacetate]		> 32 µM
CC(C)C1CN(c2cnc3ccccc3n2)CCN1/C(=N\C#N)Nc1cccc(C(F)(F)F)c1 (centres unmarked) [Example 1.25, N′-cyano-2-isopropyl-4-(quinoxalin-2-yl)-N-[3-(trifluoromethyl)phenyl]piperazine-1-carboximidamide]	> 7.29 µM	
Cc1cccc(N/C(=N/C#N)N2CCN(c3cnc4ccccc4n3)CC2CC(C)C)c1 (centres unmarked) [Example 1.38, N′-cyano-2-isobutyl-N-(3-methylphenyl)-4-(quinoxalin-2-yl)piperazine-1-carboximidamide]	> 3.1 µM	
Cc1ccccc1NC(=NC#N)NC(CNc1cnc2ccccc2n1)C(C)C (centres unmarked) [Example 2.1, 2-cyano-1-(2-methylphenyl)-3-[3-methyl-1-(quinoxalin-2-ylamino)butan-2-yl]guanidine]	> 10 µM	
CC(C)C1CN(c2cnc3ccccc3n2)CCN1/C(=N\C#N)Nc1ccccc1OC(F)(F)F (centres unmarked) [Example 1.27, N′-cyano-2-isopropyl-4-(quinoxalin-2-yl)-N-[2-(trifluoromethoxy)phenyl]piperazine-1-carboximidamide]	> 10 µM	
CC(C)C1CN(c2cnc3ccccc3n2)CCN1/C(=N\C#N)Nc1ccc(F)cc1 (centres unmarked) [Example 1.23, N′-cyano-N-(4-fluorophenyl)-2-isopropyl-4-(quinoxalin-2-yl)piperazine-1-carboximidamide]	> 10 µM	
Cc1ccccc1NC(=NC#N)N1CCN(c2cnc3ccccc3n2)CCC1C(C)C (centres unmarked) [Example 3.1, N′-cyano-7-isopropyl-N-(2-methylphenyl)-4-(quinoxalin-2-yl)-1,4-diazepane-1-carboximidamide]		> 32 µM

Structure (SMILES)	EC50 [1]	EC50
CC(C)C1CN(c2cnc3ccccc3n2)CCN1/C(=N\C#N)Nc1cccc(F)c1 (centres unmarked) [Example 1.20, N′-cyano-N-(3-fluorophenyl)-2-isopropyl-4-(quinoxalin-2-yl)piperazine-1-carboximidamide]	> 10 µM	
COc1ccccc1N/C(=N/C#N)N1CCN(c2cnc3ccccc3n2)CC1C(C)C (centres unmarked) [Example 1.18, N′-cyano-2-isopropyl-N-(2-methoxyphenyl)-4-(quinoxalin-2-yl)piperazine-1-carboximidamide]	1.16 µM	
Cc1ccccc1N/C(=N/C#N)N1CCN(c2ccc3ccccc3n2)CC1C(C)C (centres unmarked) [Example 1.61, N′-cyano-2-isopropyl-N-(2-methylphenyl)-4-(quinolin-2-yl)piperazine-1-carboximidamide]	> 6.6 µM	
Cc1ccncc1NC(=NC#N)N1CCN(c2cnc3ccccc3n2)CC1C(C)C (centres unmarked) [Example 1.72, N′-cyano-2-isopropyl-N-(4-methylpyridin-3-yl)-4-(quinoxalin-2-yl)piperazine-1-carboximidamide]	> 5.37 µM	
Cc1ccccc1N/C(=N/C#N)N1CCN(c2cnc3ccccc3n2)CC1C1CCCCC1 (centres unmarked) [Example 1.48, N′-cyano-2-cyclohexyl-N-(2-methylphenyl)-4-(quinoxalin-2-yl)piperazine-1-carboximidamide]	1.34 µM	
Cc1ccccc1NC(=NC#N)N1CCN(c2cnc3ccccc3n2)CC1 [Example 1.74, N′-cyano-N-(2-methylphenyl)-4-(quinoxalin-2-yl)piperazine-1-carboximidamide]	> 61.7 µM	
Cc1ccccc1NC(=NC#N)N1CCN(c2nc3ccccc3n2C)CC1C(C)C (centres unmarked) [Example 1.69, N′-cyano-2-isopropyl-4-(1-methyl-1H-benzimidazol-2-yl)-N-(2-methylphenyl)piperazine-1-carboximidamide]	2.99 µM	
Cc1ccccc1N/C(=N/C#N)N1CCN(c2ncc3ccccc3n2)CC1C(C)C (centres unmarked) [Example 1.62, N′-cyano-2-isopropyl-N-(2-methylphenyl)-4-(quinazolin-2-yl)piperazine-1-carboximidamide]	> 32 µM	
CC(C)CC1CN(c2cnc3ccccc3n2)CCN1/C(=N\C#N)Nc1ccccc1Cl (centres unmarked) [Example 1.41, N-(2-chlorophenyl)-N′-cyano-2-isobutyl-4-(quinoxalin-2-yl)piperazine-1-carboximidamide]	1.22 µM	
Cc1ccccc1N/C(=N/C#N)N1CCN(c2nc3ccccc3nc2C)CC1C(C)C (centres unmarked) [Example 1.52, N′-cyano-2-isopropyl-N-(2-methylphenyl)-4-(3-methylquinoxalin-2-yl)piperazine-1-carboximidamide]	> 10 µM	
CC(C)CC1CN(c2cnc3ccccc3n2)CCN1/C(=N\C#N)Nc1cccc(F)c1 (centres unmarked) [Example 1.40, N′-cyano-N-(3-fluorophenyl)-2-isobutyl-4-(quinoxalin-2-yl)piperazine-1-carboximidamide]	> 10 µM	
CC(C)C1CN(c2cnc3ccccc3n2)CCN1/C(=N\C#N)Nc1ccccc1F (centres unmarked) [Example 1.21, N′-cyano-N-(2-fluorophenyl)-2-isopropyl-4-(quinoxalin-2-yl)piperazine-1-carboximidamide]	2.07 µM	
Cc1ccccc1N/C(=N/C#N)N1CCN(c2cnc3cc(Cl)c(Cl)cc3n2)CC1C(C)C (centres unmarked) [Example 1.58, N′-cyano-4-(6,7-dichloroquinoxalin-2-yl)-2-isopropyl-N-(2-methylphenyl)piperazine-1-carboximidamide]	> 3.2 µM	
CCC(C)C1CN(c2cnc3ccccc3n2)CCN1/C(=N\C#N)Nc1ccccc1C (centres unmarked) [Example 1.47, 2-sec-butyl-N′-cyano-N-(2-methylphenyl)-4-(quinoxalin-2-yl)piperazine-1-carboximidamide]	> 1.38 µM	
Cc1ccccc1N/C(=N/C#N)N1CCN(c2cnc3ccccc3n2)CC1C (centres unmarked) [Example 1.42, N′-cyano-2-methyl-N-(2-methylphenyl)-4-(quinoxalin-2-yl)piperazine-1-carboximidamide]	> 10 µM	
Cc1cc(F)ccc1N/C(=N/C#N)N1CCN(c2cnc3ccccc3n2)CC1C(C)C (centres unmarked) [Example 1.32, N′-cyano-N-(4-fluoro-2-methylphenyl)-2-isopropyl-4-(quinoxalin-2-yl)piperazine-1-carboximidamide]	> 10 µM	
